A melting point compilation (Tetko et al.)

SMILES	melting point [°C]
CC(Oc1ccc(C23CC4CC(CC(C4)C2)C3)cc1)C(=O)O (centres undefined)	153 to 155
NC(=O)c1ccn(-c2ccccc2)n1	149 to 151
Nc1nc(-c2ccc([N+](=O)[O-])cc2)no1	294 to 296
O=C(O)c1c[nH]c(-c2cccc([N+](=O)[O-])c2)n1	184 to 186
CC(C)(C)OC(=O)NC1CCC(=O)CC1	113 to 115
CS(=O)Cc1cc(N)ccc1Cl (centres undefined)	200 to 202
NC(=O)c1cncs1	194 to 196
CN(C)S(=O)(=O)c1cccc(NC(=S)NN)c1	155 to 157
NS(=O)(=O)c1cccc(NC(=O)Oc2ccccc2)c1	193 to 195
Cc1nn(CC(C)C)c(C)c1CCC(=O)O	80 to 90
O=C(O)CCS(=O)(=O)Cc1cccc(Br)c1	156 to 158
N#Cc1ccccc1Oc1ccccc1C(=O)O	147 to 149
NC(=O)c1ccc(CO)c(F)c1	103 to 105
CC(C)CNC(N)=S	99 to 101
Cc1c(Br)cc(C(=O)O)cc1[N+](=O)[O-]	183 to 185
OC(C1CCCCN1)C(F)(F)F (centres undefined)	94 to 96
Cc1nnc(CO)n1C	155 to 157
CCc1ccc(-c2csc(N)n2)cc1	120 to 122
Nc1ccc(N2CCCCC2)c2ccncc12	149 to 151
O=C(O)CN1Cc2ccccc2C1=O	217 to 219
COc1ccc(C2C(C(=O)O)CCC(=O)N2c2ccc(C)cc2)cc1 (centres undefined)	201 to 203
Nc1nncc(-c2cccc(Cl)c2)n1	219 to 221
Oc1ccc2[nH]ncc2c1	184 to 186
CC(Cl)c1nnc(-c2cccs2)o1 (centres undefined)	211 to 213

SMILES	melting point [°C]
Nc1cc(CC2CCCCC2)n[nH]1	72 to 74
Cc1c(C(=O)CBr)oc2ccccc12	110 to 112
O=S(=O)(c1ccc(Cl)nc1)N1CCC(Cc2ccccc2)CC1	153 to 157
O=C(O)C(Sc1ccccc1Cl)c1ccccc1 (centres undefined)	116 to 118
CC(C)(C)c1ccc(N)c(C(=O)O)c1	144 to 146
CC1CCC(C(C)C)C(OC(=O)CCl)C1 (centres undefined)	65 to 66
Cc1ccc(NC(=O)CO)cc1	139 to 141
O=C(O)C1CCCc2sccc21 (centres undefined)	79 to 81
O=C1CCC2SCCSC12 (centres undefined)	81 to 83
CC1=CC(C)=NS(=O)(=O)N1	119 to 121
CC(O)CS(C)(=O)=O (centres undefined)	51 to 53
Brc1ccccc1-c1ncno1	35 to 37
Clc1nccc(N2CCCC2)n1	121 to 123
Cc1sc2[nH]c(-c3ccc(Cl)nc3)nc(=N)c2c1C	133 to 135
OCCCOc1cccc2ccccc12	65 to 67
O=C(O)c1ccc(Cl)c(S(=O)(=O)Nc2ccccc2Cl)c1	213 to 215
Cn1cc(S(N)(=O)=O)c(N)n1	162 to 164
O=C1CSC(=S)N1c1cccnc1	159 to 161
COc1ccc(S(=O)(=O)Cl)cc1[N+](=O)[O-]	58 to 60
O=[N+]([O-])c1c[nH]ccc1=NCC1CCCO1 (centres undefined)	72 to 74
NNC(=O)C1CCS(=O)(=O)C1 (centres undefined)	71 to 73
CC(C)(C)OC(=O)NC(CC#N)c1ccccc1 (centres undefined)	104 to 106
COc1ccc(S(=O)(=O)Cl)c(Cl)c1Cl	92 to 94
COC(=O)C(Cc1c[nH]c2ccccc12)NC(=O)c1ccc2ccccc2c1 (centres undefined)	182 to 184

SMILES	melting point [°C]
Cc1cc(N)ccc1N1CCCC1=O	159 to 161
CC(C)CC(CCC(=O)O)C(=O)O (centres undefined)	66 to 68
CCCc1cc(=O)[nH]c(-c2ccccc2)n1	149 to 151
Cc1nn(C)c(Cl)c1C#N	55 to 57
CCCOc1ccc(C(=O)O)cc1OC	182 to 184
CC(Cl)C(=O)c1ccc2c(c1)NC(=O)CO2 (centres undefined)	186 to 188
O=C(O)c1cc(-c2ccccc2)nc2cccc(Br)c12	235 to 237
CC(=O)N1CCCc2cc(S(=O)(=O)Cl)ccc21	127 to 129
O=C(O)Cc1csc(-c2cccc(Cl)c2)n1	104 to 109
CCS(=O)(=O)c1ccc(CN)cc1	51 to 53
Nc1ccc(-n2cnc3ccccc32)cc1	104 to 106
COc1ccc(CCC(=O)O)cc1F	111 to 113
CCS(=O)c1ccccc1C(=O)O (centres undefined)	128 to 130
O=C(OCc1ccccc1)N1CCCC1CS(=O)(=O)Cl (centres undefined)	60 to 62
Cc1nn(C(C)C)c(C)c1NC(=O)OCC(F)(F)F	185 to 187
O=C(Cc1ccccn1)c1cccnc1	66 to 68
Cn1cc(C(=O)O)c(-c2ccccc2)n1	204 to 206
CC(C)c1cc(N)on1	33 to 35
Cc1nccc(C(=O)O)n1	206 to 208
CC(C(=O)O)c1ccc(Br)cc1 (centres undefined)	54 to 56
CC(Cl)C(=O)Nc1cc(Cl)ccc1Cl (centres undefined)	123 to 125
O=c1cc(O)c2ccccc2o1	211 to 215
O=Cc1ccc(OC(=O)c2cccc([N+](=O)[O-])c2)cc1	143 to 145
Cc1ccc2nc(-c3ccc(N4C(=O)C=CC4=O)cc3)sc2c1	259 to 261

SMILES	melting point [°C]
COc1ccccc1NCC(=O)O	159 to 161
CCC(C)c1ccc(C(=O)O)cc1 (centres undefined)	88 to 90
O=C(O)C=Cc1cccc2cccnc12	188 to 190
Nc1ccnn1-c1ccc([N+](=O)[O-])cc1	138 to 140
O=C(O)[C@@H]1C[C@H]1c1cccnc1 (relative stereo)	124 to 126
NC(=S)NN=Cc1ccccc1Cl	210 to 212
Cc1ccc(C=CC(=O)O)o1	118 to 120
COc1ccc(S(=O)(=O)Cl)c2ccccc12	95 to 97
CCOc1ccc(Br)cc1N	51 to 53
Nc1ccccc1C(=O)N1CCOCC1	74 to 76
Cc1cc(=O)[nH]n1C	169 to 171
O=c1[nH]cnc2ccc([N+](=O)[O-])cc12	284 to 286
COc1ccccc1NS(=O)(=O)c1ccc(O)c(N)c1	167 to 169
Nc1ncc(Cc2cccc(F)c2)s1	82 to 84
NC(CN1CCc2ccccc21)=NO	93 to 95
O=C(O)CSc1nncs1	157 to 159
CC(=O)c1ccc(S(=O)(=O)N(C)CCCC(=O)O)cc1	80 to 82
O=C(CCl)NCCOc1ccccc1	67 to 69
O=C(O)CNC(=O)c1ccc2ccccc2c1	171 to 175
NS(=O)(=O)c1cccc(I)c1	148 to 150
O=C(O)Cc1sc(-c2ccccc2)nc1-c1cccs1	117 to 119
Oc1ccc(Br)cc1-c1nn[nH]n1	188 to 190
COC(=O)c1ccc(CN2CCC(CO)CC2)cc1	54 to 56
CN(C)S(=O)(=O)c1ccc2c(c1)CCN2	111 to 113

SMILES	melting point [°C]
OC1CCCC1n1cccn1 (centres undefined)	48 to 50
Fc1cccc(-c2noc(S)n2)c1	93 to 95
COC(=O)c1cc(-c2ccccc2)nc2ccccc12	60 to 62
CC(C)(C)OC(=O)NCCCN	22 to 24
Nc1ccnn1Cc1ccc(Br)s1	83 to 85
COc1ccc(CNc2cnn(C)c2)c(OC)c1	81 to 83
COc1ccc2nc(C)nc(Cl)c2c1	119 to 121
COc1cc(C(C)N)ccc1OCCO (centres undefined)	103 to 105
ClCc1nnc(-c2cccc(Cl)c2)o1	76 to 78
O=C(O)CNS(=O)(=O)c1ccccc1F	170 to 172
N#Cc1ccc2cc(C(=O)O)ccc2c1	279 to 281
CC(C)(C)OC(=O)NCCN=C=O	102 to 104
CN1CCC(O)(c2ccccc2)CC1	111 to 113
Cc1ccc(Nc2ncccc2N)cc1	144 to 146
Cn1ccnc1C(N)c1ccccc1F (centres undefined)	58 to 60
O=S(=O)(Cl)c1c(Cl)cccc1C(F)(F)F	36 to 38
O=C1CCC(=O)N(c2ccc(C(=O)O)cc2)N1	248 to 250
O=C(Nc1ccccc1)c1ccc(O)cc1	195 to 197
O=[N+]([O-])C=Cc1cccc2ccccc12	87 to 89
CC(C)=CCSc1ccccc1C(=O)O	138 to 140
Cc1sc(C(N)=O)cc1N	179 to 181
O=C1CN(C2CCCC2)C(=O)N1	148 to 150
CC1(c2c(F)cccc2F)CC1C(=O)O (centres undefined)	113 to 115
CC(C)CCNC(=O)C1CCN(C(=O)CCl)CC1	119 to 121

SMILES	melting point [°C]
O=C(O)c1noc(-c2ccccc2F)n1	189 to 191
CC1CNc2ccccc2CN1C(=O)OC(C)(C)C (centres undefined)	158 to 160
CC(O)c1ccc(NC(=O)c2ccncc2)cc1 (centres undefined)	174 to 176
Cc1cc(C)c(C)c(Oc2c(C#N)c(C)nn2C)c1	69 to 71
Cc1cc(O)nc(C2CC2)n1	190 to 192
Cc1cc([N+](=O)[O-])cc(C)c1S(=O)(=O)Cl	84 to 86
NNc1nc2cc(F)c(F)cc2[nH]1	221 to 223
NC(=O)c1cccc(Oc2ccc(N)nc2)c1	162 to 164
Nc1cc(C2CCNCC2)n[nH]1	151 to 153
Cc1nn(CC(=O)O)c(C)c1/C=N/O	203 to 205
O=C1CN(C(=O)c2ccc(Cl)nc2)CCN1	163 to 165
NCc1nnn[nH]1	269 to 271
Cc1cc(Br)ccc1OCc1ccccc1	56 to 58
CC(C)n1c(C(=O)O)cc(Br)c1Br	127 to 129
Nc1cc(Cl)c(Cl)nc1N	149 to 151
COc1ccc(C2C(C(=O)O)CCC(=O)N2c2ccc(OC)cc2)cc1 (centres undefined)	178 to 180
O=C(O)c1ccc2c(c1)NC(=O)C1CCCN21 (centres undefined)	250 to 252
OCCCNc1ccncc1	98 to 100
COc1ccc(-c2csc(CN)c2)cc1	124 to 126
COC(=O)c1sc(S(=O)(=O)Cl)c(C(=O)OC)c1C	88 to 92
CCOC(=O)c1sc2cccc(F)c2c1CBr	133 to 135
Cc1c(C(=O)O)cnn1-c1cccc(Br)c1	169 to 171
Clc1cccc(-c2noc(Cl)n2)c1	44 to 46
Cc1cc(C(=O)O)c(C)n1Cc1ccc(S(N)(=O)=O)cc1	198 to 202
